Test results: patent US5952368A, “5-aroylpyrrol-2-ylmethylarene derivatives” (Syntex (U.S.A.) Inc., priority 1997, dated 1999)
pIC50: −log10 of the molar value. Where two headings read alike, the source gives them in different places.

What was measured:
COX I = target: T1, COX I (Homo sapiens, UniProt P23219); assay: Inhibition of COX I in vitro (radiometric assay, 14C arachidonic acid, partially purified enzyme); format: biochemical
T1 construct: made in house; baculovirus-infected insect cells by own knowledge of the cited Barnett et al. 1994
Description: (§1) The COX I and COX II inhibitory activity of compounds of this invention in vitro was determined using partially purified COX I and COX II enzymes, prepared as described in J. Barnett et al., Biochim. Biophys. Acta, 1209:130--139 (1994).
(§2) COX I and COX II samples were diluted with Tris-HCl buffer (50 mM Tris-HCl pH 7.9) containing 2 mM EDTA and 10% glycerol and reconstituted by incubating first with 2 mM phenol for 5 minutes and then with 1 micromolar hematin for an additional 5 minutes. 125 μl of the reconstituted COX I or COX II enzyme were preincubated for 10 minutes at room temperature in a shaking water bath with the compounds of the invention dissolved in 2-15 μl of DMSO or the carrier vehicles (control samples). The enzyme reaction was initiated by adding 25 μl of 1-[14C] arachidonic acid (80,000-100,000 cpm/tube; 20 micromolar final concentration) and the reaction was allowed to continue for an additional 45 seconds. The reaction was terminated by adding 100 μl of 2N HCl and 750 μl water. An aliquot (950 μl) of the reaction mixture was loaded onto a 1 ml C18 Sep-Pak column (J. T. Baker, Phillipsburg, N.J.) which had been previously washed with 2-3 ml methanol and equilibrated with 5-6 ml distilled water. Oxygenated products were quantitatively eluted with 3 ml of acetonitrile/water/acetic acid (50:50:0.1, v/v) and the radioactivity in the eluate determined in a scintillation counter.

COX II = target: T2, COX II (Homo sapiens, UniProt P35354); assay: Inhibition of COX II in vitro (radiometric assay, 14C arachidonic acid, partially purified enzyme); format: biochemical
T2 construct: made in house; baculovirus-infected insect cells by own knowledge of the cited Barnett et al. 1994
T2 sequence (P35354 18-604): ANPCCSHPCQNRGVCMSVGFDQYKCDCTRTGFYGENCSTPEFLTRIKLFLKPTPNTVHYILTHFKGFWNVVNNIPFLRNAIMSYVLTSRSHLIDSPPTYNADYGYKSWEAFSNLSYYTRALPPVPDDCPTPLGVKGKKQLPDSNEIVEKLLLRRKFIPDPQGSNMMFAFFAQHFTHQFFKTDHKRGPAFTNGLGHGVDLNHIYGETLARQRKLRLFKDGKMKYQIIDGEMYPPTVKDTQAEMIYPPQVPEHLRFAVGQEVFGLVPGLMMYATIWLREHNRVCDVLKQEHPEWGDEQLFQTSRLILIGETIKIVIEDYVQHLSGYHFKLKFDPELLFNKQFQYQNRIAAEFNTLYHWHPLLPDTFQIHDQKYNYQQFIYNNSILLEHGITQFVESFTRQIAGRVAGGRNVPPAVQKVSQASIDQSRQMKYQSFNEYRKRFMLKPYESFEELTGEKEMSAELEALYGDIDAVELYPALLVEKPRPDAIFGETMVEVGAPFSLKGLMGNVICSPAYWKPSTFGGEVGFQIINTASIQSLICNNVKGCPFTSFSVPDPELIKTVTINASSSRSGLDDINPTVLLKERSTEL
Description: as §1, §2

[1] = partially purified COX I, 20 micromolar arachidonic acid, 10 min preincubation, room temperature, read-out: COX I IC50
[2] = partially purified COX II, 20 micromolar arachidonic acid, 10 min preincubation, room temperature, read-out: COX II IC50

T1 sequence (P23219 24-599): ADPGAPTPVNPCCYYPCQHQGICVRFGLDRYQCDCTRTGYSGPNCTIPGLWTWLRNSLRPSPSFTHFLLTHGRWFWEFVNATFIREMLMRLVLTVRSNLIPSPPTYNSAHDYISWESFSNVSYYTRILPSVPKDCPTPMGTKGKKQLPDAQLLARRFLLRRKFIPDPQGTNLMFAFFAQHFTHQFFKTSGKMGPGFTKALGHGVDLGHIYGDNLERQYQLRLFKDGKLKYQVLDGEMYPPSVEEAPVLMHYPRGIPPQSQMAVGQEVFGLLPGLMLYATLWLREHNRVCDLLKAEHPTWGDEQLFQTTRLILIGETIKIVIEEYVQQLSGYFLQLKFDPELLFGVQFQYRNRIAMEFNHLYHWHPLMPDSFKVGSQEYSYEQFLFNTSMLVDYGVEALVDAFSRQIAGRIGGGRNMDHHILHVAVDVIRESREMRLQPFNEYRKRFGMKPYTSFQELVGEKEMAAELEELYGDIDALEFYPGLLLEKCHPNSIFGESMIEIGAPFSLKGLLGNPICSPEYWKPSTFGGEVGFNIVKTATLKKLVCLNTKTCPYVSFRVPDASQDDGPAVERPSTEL

| pIC50 (COX I; [1]) | pIC50 (COX II; [2]) | Compound | pIC50 (COX I) | pIC50 (COX II) |
| --- | --- | --- | --- | --- |
| 6.10 | 6.52 | Cc1cc(Cc2ccc(NS(N)(=O)=O)cc2)n(C)c1C(=O)c1ccccc1 [compound 177, 1-{4-[5-benzoyl-1,4-dimethyl-1H-pyrrol-2-ylmethyl]phenyl}sulfamide] | – | – |
| > 7.00 | 7.22 | CN(C)c1ccc(C(=O)c2ccc(Cc3ccc(NS(C)(=O)=O)cc3F)n2C)cc1 [compound 88, N-{3-Fluoro-4-[5-(4-dimethylaminobenzoyl)-1-methyl-1H-pyrrol-2-ylmethyl]phenyl}-methanesulfonamide] | – | – |
| 3.19 | 5.06 | Cc1cc(Cc2ccc(NC(=O)N(C)C)cn2)n(C)c1C(=O)c1ccc(Cl)cc1 [compound 308, 1-{2-[5-(4-Chlorobenzoyl)-1,4-dimethyl-1H-pyrrol-2-ylmethyl]pyridin-5-yl}-3,3-di-methylurea] | – | – |
| 6.70 | 7.11 | CS(=O)(=O)Nc1ccc(C2CCn3c(C(=O)c4ccccc4)ccc32)c(Cl)c1 (stereo not drawn) [compound 131, N-{3-Chloro-4-[5-Benzoyl-1,2-dihydro-3H-pyrrolizin-1-yl]phenyl}methanesulfonamide] | – | – |
| – | 4.11 | Cc1cc(Cc2ccc(N)cn2)n(C)c1C(=O)c1ccc(Cl)cc1 [compound 333, {2-[5-(4-Chlorobenzoyl)-1,4-dimethyl-1H-pyrrol-2-ylmethyl]pyridin-5-yl}amine] | – | – |
| 5.30 | 7.40 | COc1ccc(C(=O)c2ccc(Cc3ccc(NS(N)(=O)=O)cc3F)n2C)cc1 [compound 196, 1-{3-Fluoro-4-[5-(4-Methoxybenzoyl)-1-methyl-1H-pyrrol-2-ylmethyl]phenyl}sulfamide] | – | – |
| 4.48 | 6.72 | Cc1ccc(C(=O)c2ccc(Cc3ccc(NS(C)(=O)=O)cc3)n2C)cc1 [compound 28, N-{4-[5-(4-Methylbenzoyl)-1-methyl-1H-pyrrol-2-ylmethyl]phenyl}methanesulfonamide] | – | – |
| 4.42 | 6.80 | Cc1ccccc1C(=O)c1ccc(Cc2ccc(NS(C)(=O)=O)cc2F)n1C [compound 71, N-{3-Fluoro-4-[5-(2-methylbenzoyl)-1-methyl-1H-pyrrol-2-ylmethyl]phenyl}-methanesulfonamide] | – | – |
| 5.41 | 7.35 | Cc1ccc(C(=O)c2ccc(Cc3ccc(NS(C)(=O)=O)cc3Cl)n2C)cc1 [compound 31, N-{3-Chloro-4-[5-(4-methylbenzoyl)-1-methyl-1H-pyrrol-2-ylmethyl]phenyl}-methanesulfonamide] | – | – |
| 5.09 | 6.77 | CCNC(=S)Nc1ccc(Cc2cc(C)c(C(=O)c3ccc(Cl)cc3)n2C)cc1 [compound 235] | – | – |
| 5.12 | 6.29 | Cc1cc(C(C)c2ccc(NS(C)(=O)=O)cc2)n(C)c1C(=O)c1ccc(Cl)cc1 (stereo not drawn) [compound 11, N-{4-[5-(4-Chlorobenzoyl)-1,4-dimethyl-1H-pyrrol-2-ylethan-1-yl]phenyl}-methanesulfonamide] | – | – |
| < 3.00 | 5.68 | N-{2-[5-(4-Methylbenzoyl)-1,4-dimethyl-1H-pyrrol-2-ylmethyl]pyridin-5-yl}- 2-(hydroxy)-ethanesulfonamide hydrochloride [compound 272] | – | – |
| 5.07 | 7.00 | Cc1cc(Cc2ccc(NC(=O)Nc3cccc(Cl)c3)cc2)n(C)c1C(=O)c1ccc(Cl)cc1 [compound 228, 1-{4-[5-(4-Chlorobenzoyl)-1,4-dimethyl-1H-pyrrol-2-ylmethyl]phenyl}-3-(3-chlorophenyl)-urea] | – | – |
| 3.51 | 6.19 | CSc1ccc(C(=O)c2c(C)cc(Cc3ccc(N)cc3F)n2C)cc1 [compound 251, 3-Fluoro-4-[5-(4-methylthiobenzoyl)-1,4-dimethyl-1H-pyrrol-2-ylmethyl]aniline] | – | – |
| 3.58 | 6.15 | COc1ccccc1C(=O)c1ccc(Cc2ccc(NS(C)(=O)=O)cc2F)n1C [compound 72, N-{3-Fluoro-4-[5-(2-methoxybenzoyl)-1-methyl-1H-pyrrol-2-ylmethyl]phenyl}-methanesulfonamide] | – | – |
| 4.47 | 4.56 | Cc1cc(Cc2ccc(N)cc2)n(C)c1C(=O)c1ccc(Cl)cc1 [compound 250, 4-[5-(4-Chlorobenzoyl)-1,4-dimethyl-1H-pyrrol-2-ylmethyl]aniline] | – | – |
| > 7.00 | 7.42 | CCS(=O)(=O)Nc1ccc(Cc2cc(C)c(C(=O)c3ccc(OC)cc3)n2C)c(F)c1 [compound 97, N-{3-Fluoro-4-[5-(4-methoxybenzoyl)-1,4-dimethyl-1H-pyrrol-2-ylmethyl]phenyl}-ethanesulfonamide] | – | – |
| – | – | Cc1cc(Cc2ccc(NC(=O)CF)cc2)n(C)c1C(=O)c1ccc(Cl)cc1 [compound 243, N-{4-[5-(4-Chlorobenzoyl)-1,4-dimethyl-1H-pyrrol-2-ylmethyl]phenyl}fluoroacetamide] | 4.00 | 5.05 |
| 4.99 | 5.82 | COc1ccc(C(=O)c2c(C)cc(Cc3ccc(NS(C)(=O)=O)cn3)n2C)cc1 [compound 289, N-{2-[5-(4-Methoxybenzoyl)-1,4-dimethyl-1H-pyrrol-2-ylmethyl]pyridin-5-yl}-methanesulfonamide] | – | – |
| 3.95 | 6.19 | COc1ccc(C(=O)c2ccc(Cc3ccc(NS(N)(=O)=O)cn3)n2C)cc1 [compound 306, 1-{2-[5-(4-Methoxybenzoyl)-1-methyl-1H-pyrrol-2-ylmethyl]pyridin-5-yl}sulfamide] | – | – |
| 4.96 | 6.82 | Cc1cc(Cc2ccc(NS(C)(=O)=O)cc2)n(C)c1C(=O)c1ccc(Cl)cc1 [compound 1, N-{4-[5-(4-Chlorobenzoyl)-1,4-dimethyl-1H-pyrrol-2-ylmethyl]phenyl}methane-sulfonamide] | – | – |
| 4.19 | 6.25 | CCNC(=S)Nc1ccc(Cc2cc(C)c(C(=O)c3ccc(Cl)cc3)n2C)nc1 [compound 314, 1-{2-[5-(4-Chlorobenzoyl)-1,4-dimethyl-1H-pyrrol-2-ylmethyl]pyridin-5-yl}-3-ethyl-2-thiourea] | – | – |
| 5.60 | 7.00 | Cc1cc(Cc2ccc(NC(=O)Nc3ccccc3)cc2)n(C)c1C(=O)c1ccc(Cl)cc1 [compound 227, 1-{1,4-[5-(4-Chlorobenzoyl)-1,4-dimethyl-1H-pyrrol-2-ylmethyl]phenyl}-3-phenylurea] | – | – |
| 4.00 | 5.68 | Cc1cc(Cc2ccc(NC(=O)N(C)C)cc2)n(C)c1C(=O)c1ccc(Cl)cc1 [compound 226, 1-{1,4-[5-(4-Chlorobenzoyl)-1,4-dimethyl-1H-pyrrol-2-ylmethyl]phenyl}-3,3-dimethylurea] | – | – |
| 4.21 | 4.52 | Cc1cc(Cc2ccc(NC=O)cn2)n(C)c1C(=O)c1ccc(Cl)cc1 [compound 330, N-{2-[5-(4-Chlorobenzoyl)-1,4-dimethyl-1H-pyrrol-2-ylmethyl]pyridin-5-yl}formamide] | – | – |
| 7.46 | 6.48 | Cc1cc(Cc2ccc(NS(=O)(=O)CCO)cc2F)n(C)c1C(=O)c1ccccc1 [compound 63, N-{3-Fluoro-4-[5-benzoyl-1,4-dimethyl-1H-pyrrol-2-ylmethyl]phenyl}-2-(hydroxy)-ethanesulfonamide] | – | – |
| 5.16 | 6.92 | Cn1c(Cc2ccc(NS(=O)(=O)CCO)cc2F)ccc1C(=O)c1ccccc1 [compound 66, N-{3-Fluoro-4-[5-benzoyl-1-methyl-1H-pyrrol-2-ylmethyl]phenyl}-2-(hydroxy)-ethanesulfonamide] | – | – |
| 7.05 | 7.22 | COc1ccc(C(=O)c2c(C)cc(Cc3ccc(NS(C)(=O)=O)cc3F)n2C)cc1 [compound 95, N-{3-Fluoro-4-[5-(4-methoxybenzoyl)-1,4-dimethyl-1H-pyrrol-2-ylmethyl]phenyl}-methanesulfonamide] | – | – |

| Compound | pIC50 (COX I; [1]) | pIC50 (COX II; [2]) | pIC50 (COX I) | pIC50 (COX II) |
| --- | --- | --- | --- | --- |
| Cc1cc(Cc2ccc(NC(=O)NCCCl)cn2)n(C)c1C(=O)c1ccc(Cl)cc1 [compound 310, 1-{2-[5-(4-Chlorobenzoyl)-1,4-dimethyl-1H-pyrrol-2-ylmethyl]pyridin-5-yl}-3-(2-chloro-ethyl)urea] | 3.85 | 5.04 | – | – |
